Data set [1] deals with pCMV-Luc plasmid in human newborn fibroblasts. Nature of the data set: Repair of singlet oxygen-damaged pCMV-Luc plasmid in fibroblasts. The data set is classed as cell-based. As to conditions: 100 μM 48 hours. The protocol: The plasmid pCMV-Luc is a non-replicating vector containing a reporter gene, luciferase, under the control of a strong constitutive cytomegalovirus promoter (gift of Dr. Hedayati, Johns Hopkins University). Singlet oxygen-induced DNA damage of the plasmid was generated by irradiating the plasmid with visible light for different time intervals (0 min, 10 min and 20 min), in the presence of the photosensitizer methylene blue. Fibroblasts (human newborn), pretreated for 48 hours with 100 μM pTpT or with diluent alone, were transfected with 0.5 μg of pCMV-Luc using Lipofect Aminem (Promega, Madison, Wis.). After two days, plasmid-encoded luciferase activity was determined in cell extracts (Promega luciferase assay). Pretreatment with pTpT enhanced the repair of singlet oxygen-induced DNA damage after […] by 179% and 228% respectively. FIG. 26 represents luciferase activity as a percent of luciferase activity assayed in fibroblasts transfected with sham irradiated plasmid.

For data set [2], the system named is p53, E2F1. Nature of the data set: Western analysis of p53 and E2F1 in Jurkat cells. It counts as cell-based, human. The settings on record: by 24 hours. The protocol:
Oligonucleotides homologous to the telomere overhang repeat sequence (TTAGGG; SEQ ID NO:11), sequence (11mer-1: pGTTAGGGTTAG; SEQ ID NO: 5), complementary to this sequence (11mer-2: pCTAACCCTAAC; SEQ ID NO: 9) and unrelated to the telomere sequence (11mer-3: pGATCGATCGAT; SEQ ID NO: 10) were added to cultures of Jurkat cells, a line of human T cells, one of the cell types reported to undergo apoptosis in response to telomere disruption. Within 48 hours, 50% of the cells treated with 40 μM of SEQ ID NO: 5 had accumulated in the S phase, compared to 25–30% for control cells (p<0.0003, non-paired t-test; see FIGS. 19A–19D), and by 72 hours, 13% of these cells were apoptotic as determined by a sub-G0/G1 DNA content, compared to 2–3% of controls (p<0.007, non-paired t-test; see FIGS. 19E–19H). At 96 hours, 20±3% of the 11mer-1 treated cells were apoptotic compared with 3–5% of controls (p<0.0001, non-paired t-test). […] The fluorescence intensity of the cells was the same after all treatments at 4 hours and 24 hours.
Cells were plated at a density of 180,000 cells/ml in RPMI 1640 medium supplemented with 3% FBS. […] TUNEL-positive cells were detected by FACS analysis and confocal microscopy. […] Uptake of the oligonucleotides was assessed in 5–10 μm sections with a Carl Zeiss LSM 510 confocal laser microscope. […] Fluorescence was measured on the FL-1 channel. […]

Oligonucleotides are written 5' to 3', each unit as a sugar letter and its base; * is a phosphorothioate linkage, no mark a phosphodiester; rarer units and linkages stand in square brackets, end groups in braces. Plain capitals give the bases only. d = 2'-deoxy (DNA); {P} = phosphate

For the substance thymidine dinucleotide [pTpT], the entries for the “enhanced repair of singlet oxygen-induced DNA damage” value in data set [1] (10 mJ/cm^2) and in data set [1] (20 mJ/cm^2) were 179% and 228%, respectively.
Take “pGTTAGGGTTAG (DNA {P}-dGdTdTdAdGdGdGdTdTdAdG) [SEQ ID NO: 5]”: in data set [2], the E2F1 level result was “concomitant increase in the level of the E2F1 transcription factor” and the p53 level result is “an increase in p53”.

These data come from patent publication US7033829B2, “Method to inhibit cell growth using oligonucleotides” (Trustees of Boston University, priority 2000, dated 2006).
